Reference: ChEMBL document CHEMBL1201862, “PubChem BioAssay data set” (2004)
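These data come from cells grown in 96-well plates and exposed to compound for 48 hours at five concentrations. GI50 is the concentration that inhibits growth by half.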 Active and inactive are the calls of the source. Rule as the data show it: active = GI50 up to about 1.1 µM and inactive = higher.

What was measured:
Assay in all cases: inhibition of tumour cell growth, NCI panel, 48 h
KM12 = test system: KM12
SK-OV-3 = test system: SK-OV-3
DU-145 = test system: DU-145
NCI-H522 = test system: NCI-H522
M14 = test system: M14
UO-31 = test system: UO-31
SNB-75 = test system: SNB-75
EKVX = test system: EKVX
SW-620 = test system: SW-620
HT-29 = test system: HT-29
MDA-MB-435 = test system: MDA-MB-435
SN12C = test system: SN12C
TK-10 = test system: TK-10
K562 = test system: K562
T47D = test system: T47D
MOLT-4 = test system: MOLT-4
OVCAR-8 = test system: OVCAR-8
LOX IMVI = test system: LOX IMVI
MDA-N = test system: MDA-N

Compound | GI50 (KM12) | GI50 (SK-OV-3) | GI50 (DU-145) | GI50 (NCI-H522) | GI50 (M14) | GI50 (UO-31) | GI50 (SNB-75) | GI50 (EKVX) | GI50 (SW-620) | GI50 (HT-29) | GI50 (MDA-MB-435) | GI50 (SN12C) | GI50 (TK-10) | GI50 (K562) | GI50 (T47D) | GI50 (MOLT-4) | GI50 (OVCAR-8) | GI50 (LOX IMVI) | GI50 (MDA-N)
CCCc1ccc(OCC(=O)N/N=C/c2c(-c3ccccc3)[nH]c3ccccc23)cc1 | 4.91 µM (inactive) | 27.2 µM (inactive) | 21.5 µM (inactive) | 14.6 µM (inactive) | 11.5 µM (inactive) | 24 µM (inactive) | 19.2 µM (inactive) | 12.7 µM (inactive) | 10.6 µM (inactive) | 6.64 µM (inactive) | 2.77 µM (inactive) | 14 µM (inactive) | 17.1 µM (inactive) | 3.99 µM (inactive) | 5.77 µM (inactive) | 5.01 µM (inactive) | 9.08 µM (inactive) | 9.38 µM (inactive) | –
CC(=O)c1cc2c(s1)C(=O)c1sccc1C2=O | 0.118 µM (active) | 1.73 µM (inactive) | 0.0553 µM (active) | 0.0175 µM (active) | 0.0274 µM (active) | 0.0314 µM (active) | 0.0204 µM (active) | 0.118 µM (active) | 0.0569 µM (active) | 0.202 µM (active) | < 0.01 µM (active) | 0.0156 µM (active) | 0.212 µM (active) | 0.018 µM (active) | 0.222 µM (active) | 0.0486 µM (active) | 0.0738 µM (active) | 0.0102 µM (active) | –
O=C(C(Cl)=C(Nc1ccccc1)Nc1ccccc1)C(Cl)Cl | 39.1 µM (inactive) | 37.6 µM (inactive) | 51.2 µM (inactive) | 19.7 µM (inactive) | 16.8 µM (inactive) | 33.6 µM (inactive) | – | 22.6 µM (inactive) | 18.8 µM (inactive) | 21.2 µM (inactive) | 10.6 µM (inactive) | 25.5 µM (inactive) | 40.3 µM (inactive) | 25.3 µM (inactive) | 12.4 µM (inactive) | 16 µM (inactive) | 17.3 µM (inactive) | 13.2 µM (inactive) | –
Cc1ccccc1-n1c(CCl)nc2ccc(Br)cc2c1=O | 13.6 µM (inactive) | 29.5 µM (inactive) | – | 2.28 µM (inactive) | 0.679 µM (active) | 14.9 µM (inactive) | 12.8 µM (inactive) | 18.1 µM (inactive) | 3.13 µM (inactive) | 4.29 µM (inactive) | – | 0.434 µM (active) | 24.7 µM (inactive) | 0.354 µM (active) | – | 19.8 µM (inactive) | 12.5 µM (inactive) | 0.0333 µM (active) | –
Cc1cccc(NS(=O)(=O)c2ccc(/N=N/c3c(O)c(C(=O)O)cc4ccccc34)cc2)n1 | > 100 µM (inactive) | > 100 µM (inactive) | – | > 100 µM (inactive) | > 100 µM (inactive) | > 100 µM (inactive) | > 100 µM (inactive) | > 100 µM (inactive) | > 100 µM (inactive) | > 100 µM (inactive) | > 100 µM (inactive) | – | > 100 µM (inactive) | > 100 µM (inactive) | – | > 100 µM (inactive) | > 100 µM (inactive) | – | –
O=C(CSCC(=O)N/N=C/c1ccc2c(c1)OCO2)N/N=C/c1ccc2c(c1)OCO2 | > 100 µM (inactive) | > 100 µM (inactive) | > 100 µM (inactive) | 64.1 µM (inactive) | 58.9 µM (inactive) | > 100 µM (inactive) | > 100 µM (inactive) | 55.8 µM (inactive) | > 100 µM (inactive) | > 100 µM (inactive) | 38.3 µM (inactive) | > 100 µM (inactive) | > 100 µM (inactive) | 38.3 µM (inactive) | 55.5 µM (inactive) | 21.5 µM (inactive) | 49 µM (inactive) | > 100 µM (inactive) | –
COc1ccc2nc3cc(Cl)ccc3c(NCCC[N+](C)(C)CCCCCCCCCCCCCCCC[N+](C)(C)CCCNc3c4ccc(Cl)cc4nc4ccc(OC)cc34)c2c1 | 1.64 µM (inactive) | 4.33 µM (inactive) | – | 2.81 µM (inactive) | 4.7 µM (inactive) | > 10 µM (inactive) | 2.83 µM (inactive) | 3.21 µM (inactive) | 1.96 µM (inactive) | 1.61 µM (inactive) | – | 3.22 µM (inactive) | 4.22 µM (inactive) | 1.85 µM (inactive) | – | 1.43 µM (inactive) | 3.15 µM (inactive) | 1.96 µM (inactive) | –
C=C1CC2OC(=O)C(=C)C2C(O)C2C(=C)CCC12 (centres undefined) | 10.8 µM (inactive) | 12.4 µM (inactive) | – | – | – | 16.1 µM (inactive) | 9.86 µM (inactive) | 6.98 µM (inactive) | 3.82 µM (inactive) | 3.78 µM (inactive) | – | 5.73 µM (inactive) | 14.8 µM (inactive) | 3.47 µM (inactive) | – | 2.75 µM (inactive) | 4.1 µM (inactive) | – | –
NN/C(=N\S(=O)(=O)c1cc2ccccc2s1)Nc1ccc(Cl)cc1 | 19.1 µM (inactive) | 34.9 µM (inactive) | 17.8 µM (inactive) | – | 20.9 µM (inactive) | 18 µM (inactive) | 20.6 µM (inactive) | 19.2 µM (inactive) | 23.1 µM (inactive) | 19.9 µM (inactive) | – | 22 µM (inactive) | 23 µM (inactive) | 13.3 µM (inactive) | 17.8 µM (inactive) | 18.9 µM (inactive) | 22.4 µM (inactive) | 20.8 µM (inactive) | –
COc1cccc(/C=C2\CCCc3ccccc3C2=O)c1 | 17.6 µM (inactive) | 30.5 µM (inactive) | 19.1 µM (inactive) | 15 µM (inactive) | 13 µM (inactive) | 15.1 µM (inactive) | 23.4 µM (inactive) | 21.3 µM (inactive) | 17.3 µM (inactive) | 17.1 µM (inactive) | 10.1 µM (inactive) | 16.1 µM (inactive) | 26.4 µM (inactive) | 16.1 µM (inactive) | – | 19.4 µM (inactive) | 19.2 µM (inactive) | 17.4 µM (inactive) | –
O=C(CCc1ccccc1CO)NCCc1ccccc1 | > 100 µM (inactive) | > 100 µM (inactive) | > 100 µM (inactive) | > 100 µM (inactive) | > 100 µM (inactive) | 36.5 µM (inactive) | 49.1 µM (inactive) | > 100 µM (inactive) | > 100 µM (inactive) | > 100 µM (inactive) | > 100 µM (inactive) | > 100 µM (inactive) | > 100 µM (inactive) | > 100 µM (inactive) | > 100 µM (inactive) | > 100 µM (inactive) | > 100 µM (inactive) | – | –
CC[C@H]1C=CCC[C@@]2(C[C@@H]3CC[C@H]4[C@H](C(=O)OCCCCCCCCCCCCCCCC(=O)N(CCCN)C[C@@H](O)CCN)[C@]5(CCC[C@@H](C)O5)NC(=[N+]34)N2)O1 | 0.509 µM (active) | 1.65 µM (inactive) | 1.1 µM (active) | 1.04 µM (active) | 0.231 µM (active) | 0.471 µM (active) | – | 1.08 µM (active) | 0.604 µM (active) | 0.387 µM (active) | 0.338 µM (active) | 0.776 µM (active) | 1.46 µM (inactive) | 0.256 µM (active) | – | 0.27 µM (active) | 0.693 µM (active) | 0.36 µM (active) | 407 nM (active)
